The source made the active and inactive calls.
Columns and labels:
[1] = molecular target: 5-hydroxytryptamine receptor 2A (Mus musculus, UniProt P35363); assay type: functional, cell-based;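 also: CHO-K1 cells with tagged receptor and beta-arrestin; agonist potency measured as compound-induced activation of the receptor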
Mu-type opioid receptor = Mu-type opioid receptor (Homo sapiens, UniProt P35372); assay type: functional, cell-based;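 also: U2OS cells with beta-arrestin recruitment to OPRM1 by beta-gal complementation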
Sequence of Mu-type opioid receptor (P35372 whole entry): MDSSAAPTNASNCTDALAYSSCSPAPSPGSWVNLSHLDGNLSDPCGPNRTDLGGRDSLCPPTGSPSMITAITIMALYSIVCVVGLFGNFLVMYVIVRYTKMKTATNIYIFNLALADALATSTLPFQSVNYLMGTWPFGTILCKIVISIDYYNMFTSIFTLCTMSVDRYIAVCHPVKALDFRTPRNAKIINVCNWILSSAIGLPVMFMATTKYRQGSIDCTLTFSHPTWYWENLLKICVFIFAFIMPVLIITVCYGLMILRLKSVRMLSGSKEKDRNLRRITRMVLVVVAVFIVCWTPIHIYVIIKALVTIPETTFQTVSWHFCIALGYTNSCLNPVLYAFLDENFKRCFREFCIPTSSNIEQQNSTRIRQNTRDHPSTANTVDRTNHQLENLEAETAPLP

cells = assay type: functional
Beta-lactamase [2] = molecular target: Beta-lactamase (Pseudomonas aeruginosa, UniProt Q79MP6);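 also: biochemical dose-response test of metallo-beta-lactamase enzyme inhibition, read out by epi-absorbance; purified recombinant IMP-1 metallo-beta-lactamase with nitrocefin as substrate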
Sequence of Beta-lactamase (Pseudomonas aeruginosa, UniProt Q79MP6) (Q79MP6 whole entry): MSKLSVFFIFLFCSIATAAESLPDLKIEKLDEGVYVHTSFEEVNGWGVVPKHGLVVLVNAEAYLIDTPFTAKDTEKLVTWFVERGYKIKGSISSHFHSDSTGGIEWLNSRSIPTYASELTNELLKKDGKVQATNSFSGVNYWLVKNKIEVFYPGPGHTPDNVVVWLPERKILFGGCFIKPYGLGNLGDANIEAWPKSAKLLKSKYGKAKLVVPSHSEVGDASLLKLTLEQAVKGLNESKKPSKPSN

Beta-lactamase [3] = molecular target: Beta-lactamase (Salmonella choleraesuis (strain SC-B67), UniProt Q5J463)
Sequence of Beta-lactamase (Salmonella choleraesuis (strain SC-B67), UniProt Q5J463) (Q5J463 whole entry): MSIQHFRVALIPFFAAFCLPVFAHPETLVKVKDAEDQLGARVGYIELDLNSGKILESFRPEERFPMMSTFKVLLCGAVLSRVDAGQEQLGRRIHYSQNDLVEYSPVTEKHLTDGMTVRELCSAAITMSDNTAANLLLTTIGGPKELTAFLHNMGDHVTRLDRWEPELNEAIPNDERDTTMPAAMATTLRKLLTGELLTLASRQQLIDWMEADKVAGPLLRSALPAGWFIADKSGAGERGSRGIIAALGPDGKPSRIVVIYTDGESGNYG

H4 = assay: Luminescence Cell-Based Dose Response HTS to Identify Activators of 5'UTR Stem-Loop Driven Prion Protein mRNA Translation in H4 Neuroglioblastoma Cells. [Related pubchem assays: 1829 (Project Summary), 1814 (Primary HTS)]; assay type: functional; details: Homo sapiens
[4] = Luminescence Cell-Based Dose Confirmation HTS to Identify Activators of 5'UTR Stem-Loop Driven Alpha-Synuclein mRNA Translation in H4 Neuroglioblastoma Cells. [Related pubchem assays: 1829 (Project Summary), 1814 (Primary HTS)]; assay type: functional
[5] = molecular target: T1, Tyrosine-protein phosphatase non-receptor type 11 (Homo sapiens, UniProt Q06124); assay: PTPN11 enzyme inhibitors – biochemical, selectivity assay for STEP inhibitor project, dose response (AID 602367); assay type: functional; details: read-out: IC50_Mean
T1 sequence (Q06124 whole entry): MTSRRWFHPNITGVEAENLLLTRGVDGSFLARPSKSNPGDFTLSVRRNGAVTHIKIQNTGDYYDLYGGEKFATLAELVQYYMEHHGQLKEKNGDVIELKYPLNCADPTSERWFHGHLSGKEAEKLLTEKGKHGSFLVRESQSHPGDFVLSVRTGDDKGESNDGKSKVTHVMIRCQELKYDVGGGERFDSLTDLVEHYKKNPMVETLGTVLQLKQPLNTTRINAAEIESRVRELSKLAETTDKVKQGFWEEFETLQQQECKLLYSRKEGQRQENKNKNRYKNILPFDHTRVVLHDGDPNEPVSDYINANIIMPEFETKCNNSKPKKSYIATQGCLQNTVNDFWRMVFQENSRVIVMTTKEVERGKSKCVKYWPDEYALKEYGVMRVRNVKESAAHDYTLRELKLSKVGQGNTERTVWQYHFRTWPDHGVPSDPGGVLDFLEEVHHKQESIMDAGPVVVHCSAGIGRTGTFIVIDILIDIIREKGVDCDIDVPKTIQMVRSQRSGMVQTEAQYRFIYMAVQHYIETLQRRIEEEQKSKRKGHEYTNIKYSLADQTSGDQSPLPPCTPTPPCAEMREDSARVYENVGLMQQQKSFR

[6] = molecular target: T2, Carboxy-terminal domain RNA polymerase II polypeptide A small phosphatase 1 (Homo sapiens, UniProt Q9GZU7); assay: CTDSP1 inhibitors, concentration-response, biochemical, absorbance readout, ultra-high-throughput screen actives (AID 540297); assay type: functional
T2 sequence (Q9GZU7 whole entry): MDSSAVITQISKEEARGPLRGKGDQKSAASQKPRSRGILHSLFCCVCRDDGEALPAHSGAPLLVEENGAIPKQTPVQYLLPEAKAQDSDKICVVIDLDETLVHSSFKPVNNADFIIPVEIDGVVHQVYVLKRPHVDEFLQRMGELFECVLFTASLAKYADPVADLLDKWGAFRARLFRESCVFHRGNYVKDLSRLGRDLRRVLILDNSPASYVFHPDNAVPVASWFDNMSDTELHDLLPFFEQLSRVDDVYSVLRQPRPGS

[7] = molecular target: T3, Tyrosine-protein phosphatase non-receptor type 22 (Homo sapiens, UniProt Q9Y2R2); assay: lymphoid phosphatase LYP inhibitors – biochemical, selectivity assay for STEP inhibitor project, dose response (AID 624241); assay type: functional
T3 sequence (Q9Y2R2 whole entry): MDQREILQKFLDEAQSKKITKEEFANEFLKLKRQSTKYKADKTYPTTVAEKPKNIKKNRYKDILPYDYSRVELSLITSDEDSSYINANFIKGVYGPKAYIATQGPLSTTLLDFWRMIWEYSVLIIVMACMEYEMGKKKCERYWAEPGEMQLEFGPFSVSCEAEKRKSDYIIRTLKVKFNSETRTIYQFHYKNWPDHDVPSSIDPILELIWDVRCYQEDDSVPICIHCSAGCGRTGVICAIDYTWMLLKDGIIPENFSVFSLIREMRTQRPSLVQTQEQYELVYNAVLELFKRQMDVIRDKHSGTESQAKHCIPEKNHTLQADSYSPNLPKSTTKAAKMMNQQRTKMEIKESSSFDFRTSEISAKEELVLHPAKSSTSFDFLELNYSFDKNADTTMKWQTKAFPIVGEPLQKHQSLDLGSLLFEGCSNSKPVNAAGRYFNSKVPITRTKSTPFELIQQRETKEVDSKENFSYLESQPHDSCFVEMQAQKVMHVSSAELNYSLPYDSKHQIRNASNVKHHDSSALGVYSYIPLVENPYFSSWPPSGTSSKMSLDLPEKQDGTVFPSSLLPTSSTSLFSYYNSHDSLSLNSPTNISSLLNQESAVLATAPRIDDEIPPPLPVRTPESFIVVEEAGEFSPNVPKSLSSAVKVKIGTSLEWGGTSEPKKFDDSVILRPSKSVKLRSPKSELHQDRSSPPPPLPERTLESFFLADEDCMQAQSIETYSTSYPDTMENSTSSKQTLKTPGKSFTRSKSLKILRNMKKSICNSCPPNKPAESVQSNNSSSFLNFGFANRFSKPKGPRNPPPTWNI

[8] = Luminescence Cell-Based Dose Response HTS to Identify Activators of Luciferase Translation or Activity in H4 […] Cells. [Related pubchem assays: 1829 (Project Summary), 1814 (Primary HTS)]; assay type: functional
[9] = molecular target: Dual specificity protein phosphatase 3 (Homo sapiens, UniProt P51452); assay: VHR phosphatase inhibition, dose response, selectivity assay for STEP inhibitor project, biochemical (AID 602374); assay type: functional; details: read-out: IC50_Mean
Sequence of Dual specificity protein phosphatase 3 (P51452 whole entry): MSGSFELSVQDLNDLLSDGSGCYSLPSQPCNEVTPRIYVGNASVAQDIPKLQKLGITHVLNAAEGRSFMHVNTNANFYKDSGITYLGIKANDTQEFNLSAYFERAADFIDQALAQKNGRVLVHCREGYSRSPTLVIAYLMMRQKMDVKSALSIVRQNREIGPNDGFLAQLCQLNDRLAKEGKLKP

[10] = molecular target: T4, Tyrosine-protein phosphatase non-receptor type 5 (Homo sapiens, UniProt P54829); assay: PTPN5 enzyme inhibition – biochemical, fluorescence intensity, uHTS hits, confirmation (AID 602372); assay type: functional; details: read-out: IC50_Mean
T4 sequence (P54829 whole entry): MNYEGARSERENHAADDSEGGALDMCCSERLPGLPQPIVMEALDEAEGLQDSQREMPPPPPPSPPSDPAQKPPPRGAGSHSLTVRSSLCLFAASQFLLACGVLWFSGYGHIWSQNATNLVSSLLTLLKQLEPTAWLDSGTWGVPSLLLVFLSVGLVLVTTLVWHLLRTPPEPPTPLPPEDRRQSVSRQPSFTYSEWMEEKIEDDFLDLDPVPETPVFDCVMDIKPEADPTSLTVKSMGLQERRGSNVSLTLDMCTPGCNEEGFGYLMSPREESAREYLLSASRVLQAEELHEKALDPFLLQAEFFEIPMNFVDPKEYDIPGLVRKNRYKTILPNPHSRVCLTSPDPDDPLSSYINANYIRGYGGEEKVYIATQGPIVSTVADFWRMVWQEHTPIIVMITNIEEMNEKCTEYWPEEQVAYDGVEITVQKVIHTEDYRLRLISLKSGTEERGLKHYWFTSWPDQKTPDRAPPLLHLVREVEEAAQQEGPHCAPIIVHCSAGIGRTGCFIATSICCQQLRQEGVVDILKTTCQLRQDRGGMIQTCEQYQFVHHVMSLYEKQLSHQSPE

Vero = assay: viability loss in Vero cells – cell-based, plate reader, cherry-pick samples, cytotoxicity control, dose response (AID 687020); assay type: functional; details: Chlorocebus sabaeus
[11] = molecular target: T5, Heat shock factor protein 1 (Mus musculus, UniProt P38532); assay: decrease of HSF1-responsive luciferase luminescence – cell-based, NIH3T3, dose retest, confirmation (AID 2382); assay type: functional;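 also: NIH3T3 fibroblasts with HSF1-driven luciferase reporter stressed by proteasome inhibitor MG132; luminescence from HSF1-driven luciferase expression after 8 hours of MG132 stress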
T5 sequence (P38532 whole entry): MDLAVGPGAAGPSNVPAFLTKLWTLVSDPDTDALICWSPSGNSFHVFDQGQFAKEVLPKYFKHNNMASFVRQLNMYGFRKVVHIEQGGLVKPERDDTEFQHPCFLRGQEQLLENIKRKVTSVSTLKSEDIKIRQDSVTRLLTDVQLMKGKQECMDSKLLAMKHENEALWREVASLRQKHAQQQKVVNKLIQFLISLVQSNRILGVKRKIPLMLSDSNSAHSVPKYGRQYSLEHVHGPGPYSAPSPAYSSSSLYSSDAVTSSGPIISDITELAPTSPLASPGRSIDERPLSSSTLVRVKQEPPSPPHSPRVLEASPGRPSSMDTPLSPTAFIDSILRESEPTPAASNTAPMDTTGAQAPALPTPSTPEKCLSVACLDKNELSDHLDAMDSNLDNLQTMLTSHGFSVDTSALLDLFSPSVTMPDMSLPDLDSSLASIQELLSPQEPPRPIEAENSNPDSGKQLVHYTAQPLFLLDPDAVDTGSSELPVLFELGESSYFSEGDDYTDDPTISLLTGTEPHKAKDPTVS

Protein skinhead-1 = molecular target: T6, Protein skinhead-1 (Caenorhabditis elegans, UniProt P34707); assay type: functional
T6 sequence (P34707 whole entry): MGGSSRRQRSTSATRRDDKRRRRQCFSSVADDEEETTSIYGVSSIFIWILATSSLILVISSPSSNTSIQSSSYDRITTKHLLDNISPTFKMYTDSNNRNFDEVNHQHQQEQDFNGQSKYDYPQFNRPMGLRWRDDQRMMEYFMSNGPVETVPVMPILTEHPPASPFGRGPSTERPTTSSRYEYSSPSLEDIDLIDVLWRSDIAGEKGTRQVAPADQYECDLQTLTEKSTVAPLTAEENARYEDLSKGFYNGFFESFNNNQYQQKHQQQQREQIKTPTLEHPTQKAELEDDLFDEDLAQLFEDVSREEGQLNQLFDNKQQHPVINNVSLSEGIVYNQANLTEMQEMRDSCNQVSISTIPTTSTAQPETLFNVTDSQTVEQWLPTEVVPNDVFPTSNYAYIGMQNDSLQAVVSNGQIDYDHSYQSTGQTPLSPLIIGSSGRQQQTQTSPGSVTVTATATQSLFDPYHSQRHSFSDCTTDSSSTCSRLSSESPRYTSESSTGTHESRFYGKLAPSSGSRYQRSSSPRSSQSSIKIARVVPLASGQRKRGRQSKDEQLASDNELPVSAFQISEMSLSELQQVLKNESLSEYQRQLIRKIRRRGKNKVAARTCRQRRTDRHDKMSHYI

[12] = molecular target: Botulinum neurotoxin type F (Clostridium botulinum, UniProt P30996); assay: High-throughput multiplex microsphere dose response for inhibitors of toxin protease, specifically Botulinum neurotoxin light chain F protease, compounds from Cherry Pick 02.; assay type: functional; details: read-out: EC50_MICROM
Sequence of Botulinum neurotoxin type F (P30996 1-436 limits assumed): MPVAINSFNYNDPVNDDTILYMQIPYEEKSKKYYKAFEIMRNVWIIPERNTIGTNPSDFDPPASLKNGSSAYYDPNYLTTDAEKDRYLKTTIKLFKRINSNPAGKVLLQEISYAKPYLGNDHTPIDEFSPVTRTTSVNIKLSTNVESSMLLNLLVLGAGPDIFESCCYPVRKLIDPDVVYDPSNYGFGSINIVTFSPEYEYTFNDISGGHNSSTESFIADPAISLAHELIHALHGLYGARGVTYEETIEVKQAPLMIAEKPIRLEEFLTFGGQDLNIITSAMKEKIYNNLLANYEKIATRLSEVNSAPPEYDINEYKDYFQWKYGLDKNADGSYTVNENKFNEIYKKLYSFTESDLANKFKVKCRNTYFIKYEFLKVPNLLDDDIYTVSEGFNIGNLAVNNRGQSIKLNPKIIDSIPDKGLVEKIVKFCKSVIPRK

Lethal factor = Lethal factor (Bacillus anthracis, UniProt P15917); assay: High-throughput multiplex microsphere dose response for inhibitors of toxin protease, specifically Lethal Factor protease, compounds from Cherry Pick 02.; assay type: functional; details: read-out: EC50_MICROM
Sequence of Lethal factor (P15917 whole entry): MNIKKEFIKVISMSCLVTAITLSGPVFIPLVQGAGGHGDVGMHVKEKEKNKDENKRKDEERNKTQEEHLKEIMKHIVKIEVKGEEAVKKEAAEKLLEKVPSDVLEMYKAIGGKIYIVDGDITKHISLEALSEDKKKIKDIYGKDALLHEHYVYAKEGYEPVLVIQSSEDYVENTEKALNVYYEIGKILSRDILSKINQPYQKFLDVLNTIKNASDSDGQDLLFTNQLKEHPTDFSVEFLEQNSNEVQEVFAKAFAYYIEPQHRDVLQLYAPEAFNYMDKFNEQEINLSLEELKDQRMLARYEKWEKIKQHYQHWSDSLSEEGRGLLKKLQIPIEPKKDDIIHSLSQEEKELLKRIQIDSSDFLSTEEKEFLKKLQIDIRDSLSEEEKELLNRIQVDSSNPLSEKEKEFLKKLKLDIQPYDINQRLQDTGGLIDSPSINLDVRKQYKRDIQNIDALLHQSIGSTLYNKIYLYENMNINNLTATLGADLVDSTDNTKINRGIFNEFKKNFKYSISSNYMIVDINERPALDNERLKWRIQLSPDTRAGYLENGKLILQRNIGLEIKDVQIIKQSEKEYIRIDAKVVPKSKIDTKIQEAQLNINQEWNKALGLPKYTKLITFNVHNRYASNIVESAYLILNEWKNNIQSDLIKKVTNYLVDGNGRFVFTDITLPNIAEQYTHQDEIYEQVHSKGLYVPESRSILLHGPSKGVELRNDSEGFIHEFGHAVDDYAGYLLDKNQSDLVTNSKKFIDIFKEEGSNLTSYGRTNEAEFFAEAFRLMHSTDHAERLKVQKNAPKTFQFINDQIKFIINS

[13] = reduction of Shn3 3'UTR-driven luciferase in osteoblasts – cell-based, Clone20 osteoblasts, firefly luciferase, cherry-picked, dose response (AID 624132); assay type: functional;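 also: firefly luciferase luminescence from reporter carrying the Shn3 3'UTR in osteoblasts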
[14] = molecular target: T3, Tyrosine-protein phosphatase non-receptor type 22; assay: PTPN22 enzyme inhibitors – biochemical, fluorescence, LYP catalytic domain, selectivity assay for LMPTP inhibitor project, dose response (AID 652006); assay type: functional; details: read-out: IC50_Mean
[15] = molecular target: T7, Low molecular weight phosphotyrosine protein phosphatase (Homo sapiens, UniProt P24666); assay type: functional; details: read-out: IC50_Mean
T7 sequence (P24666 whole entry): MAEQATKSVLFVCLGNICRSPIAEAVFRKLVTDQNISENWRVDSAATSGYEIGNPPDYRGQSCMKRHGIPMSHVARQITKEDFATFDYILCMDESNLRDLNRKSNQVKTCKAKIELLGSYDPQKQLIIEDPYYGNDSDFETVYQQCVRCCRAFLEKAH

[16] = loss of viability in HepG2 cells – cell-based, CellTiter-Glo, cherry-picked, cytotoxicity control for Shn3 inhibitor project, dose response (AID 624134); assay type: functional
[17] = molecular target: T7, Low molecular weight phosphotyrosine protein phosphatase; assay type: functional; details: read-out: IC50_Mean; remark: listed apart in the source
[18] = non-specific 3'UTR reporter inhibition in Clone20-Shn3RL – cell-based, Renilla luciferase, cherry-picked, counter-screen for Shn3 inhibitor project, dose response (AID 624133); assay type: functional
[19] = molecular target: Arf-GAP with SH3 domain, ANK repeat and PH domain-containing protein 1 (Homo sapiens, UniProt Q9ULH1); assay type: functional;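 also: biochemical fluorescence polarization dose–response screen measuring inhibition of ASAP1; ASAP1 GAP domain stimulating GTP hydrolysis by truncated human ARF1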
Sequence of Arf-GAP with SH3 domain, ANK repeat and PH domain-containing protein 1 (Q9ULH1 whole entry, the tested form may be a part): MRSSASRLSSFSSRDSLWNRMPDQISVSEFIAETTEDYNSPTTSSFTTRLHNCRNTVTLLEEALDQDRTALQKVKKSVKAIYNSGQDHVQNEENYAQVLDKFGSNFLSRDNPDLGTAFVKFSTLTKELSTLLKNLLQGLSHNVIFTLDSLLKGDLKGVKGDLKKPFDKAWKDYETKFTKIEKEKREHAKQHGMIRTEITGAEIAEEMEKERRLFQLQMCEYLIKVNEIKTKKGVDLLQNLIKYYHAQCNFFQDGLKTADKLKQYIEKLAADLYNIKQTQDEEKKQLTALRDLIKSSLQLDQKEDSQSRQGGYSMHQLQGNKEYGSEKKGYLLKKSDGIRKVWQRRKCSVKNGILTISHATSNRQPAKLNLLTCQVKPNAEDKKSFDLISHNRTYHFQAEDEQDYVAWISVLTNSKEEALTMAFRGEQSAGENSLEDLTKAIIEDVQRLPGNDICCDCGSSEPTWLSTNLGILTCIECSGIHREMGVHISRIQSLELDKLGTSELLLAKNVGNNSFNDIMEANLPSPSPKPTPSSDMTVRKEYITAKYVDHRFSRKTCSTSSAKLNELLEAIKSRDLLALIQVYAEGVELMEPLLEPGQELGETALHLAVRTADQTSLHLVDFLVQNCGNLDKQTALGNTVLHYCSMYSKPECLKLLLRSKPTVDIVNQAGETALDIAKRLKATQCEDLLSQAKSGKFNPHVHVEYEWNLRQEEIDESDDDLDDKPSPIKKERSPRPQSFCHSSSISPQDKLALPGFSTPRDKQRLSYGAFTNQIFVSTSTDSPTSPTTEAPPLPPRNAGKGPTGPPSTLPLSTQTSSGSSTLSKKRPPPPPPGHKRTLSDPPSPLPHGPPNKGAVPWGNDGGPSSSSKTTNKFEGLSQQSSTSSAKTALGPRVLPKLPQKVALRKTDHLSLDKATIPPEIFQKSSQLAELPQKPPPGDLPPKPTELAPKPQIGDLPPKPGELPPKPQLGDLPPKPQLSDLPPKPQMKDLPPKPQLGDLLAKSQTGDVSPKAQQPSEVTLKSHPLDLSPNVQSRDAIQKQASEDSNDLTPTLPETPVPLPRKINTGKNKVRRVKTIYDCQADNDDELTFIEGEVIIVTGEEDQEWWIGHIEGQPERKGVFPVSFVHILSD

[20] = molecular target: ADP-ribosylation factor GTPase-activating protein 1 (Rattus norvegicus, UniProt Q62848); assay: Fluorescence polarization-based biochemical high throughput dose response screening assay to identify inhibitors of ADP-ribosylation factor GTPase activating protein 1 (ARFGAP1).; assay type: functional
Sequence of ADP-ribosylation factor GTPase-activating protein 1 (Q62848 whole entry): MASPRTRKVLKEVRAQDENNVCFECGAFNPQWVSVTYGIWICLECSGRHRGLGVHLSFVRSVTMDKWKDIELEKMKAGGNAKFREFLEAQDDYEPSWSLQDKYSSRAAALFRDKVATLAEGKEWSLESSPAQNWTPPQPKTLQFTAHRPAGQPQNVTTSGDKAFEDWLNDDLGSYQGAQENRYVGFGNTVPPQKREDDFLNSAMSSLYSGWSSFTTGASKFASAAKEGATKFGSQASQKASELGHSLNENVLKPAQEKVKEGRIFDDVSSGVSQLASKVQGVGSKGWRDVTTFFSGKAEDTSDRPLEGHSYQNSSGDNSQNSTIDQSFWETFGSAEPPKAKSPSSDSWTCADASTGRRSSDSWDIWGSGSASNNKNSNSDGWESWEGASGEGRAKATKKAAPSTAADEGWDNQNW

[21] = molecular target: T8, Palmitoyl-protein thioesterase ABHD10, mitochondrial (Mus musculus, UniProt Q6PE15); assay: Late stage assay provider results from the probe development effort to identify inhibitors of PME-1: fluorescence-based dose response cell-based gel-based competitive Activity-Based Protein Profiling (ABPP) inhibition of ABHD10.; assay type: functional
T8 sequence (Q6PE15 whole entry): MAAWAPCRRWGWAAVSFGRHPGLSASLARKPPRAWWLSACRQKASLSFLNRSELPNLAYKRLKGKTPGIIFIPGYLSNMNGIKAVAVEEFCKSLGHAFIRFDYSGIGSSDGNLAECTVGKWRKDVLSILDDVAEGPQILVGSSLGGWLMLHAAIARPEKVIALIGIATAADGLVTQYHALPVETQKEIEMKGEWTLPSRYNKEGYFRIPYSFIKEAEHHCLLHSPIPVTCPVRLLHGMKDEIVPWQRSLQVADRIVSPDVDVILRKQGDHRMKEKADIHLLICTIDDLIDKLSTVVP

[22] = molecular target: T8, Palmitoyl-protein thioesterase ABHD10, mitochondrial; assay: Late stage assay provider results from the probe development effort to identify inhibitors of PME-1: fluorescence-based dose response biochemical gel-based competitive Activity-Based Protein Profiling (ABPP) inhibition of ABHD10 Set 1.; assay type: functional

Sequence of 5-hydroxytryptamine receptor 2A (P35363 whole entry): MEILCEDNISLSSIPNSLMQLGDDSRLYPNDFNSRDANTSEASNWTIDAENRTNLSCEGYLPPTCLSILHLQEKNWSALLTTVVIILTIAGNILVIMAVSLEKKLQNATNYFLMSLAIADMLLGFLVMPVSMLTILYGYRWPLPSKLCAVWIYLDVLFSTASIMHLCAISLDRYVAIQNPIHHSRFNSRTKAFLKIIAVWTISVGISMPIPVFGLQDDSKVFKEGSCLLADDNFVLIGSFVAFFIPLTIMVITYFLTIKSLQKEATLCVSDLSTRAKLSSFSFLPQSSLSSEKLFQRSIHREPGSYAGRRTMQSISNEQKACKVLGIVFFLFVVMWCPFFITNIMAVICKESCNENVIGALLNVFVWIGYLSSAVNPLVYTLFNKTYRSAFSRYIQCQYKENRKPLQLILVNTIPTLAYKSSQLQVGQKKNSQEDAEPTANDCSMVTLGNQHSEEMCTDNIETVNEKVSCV

O=[N+]([O-])c1cccc(CN2CCN(c3ncccn3)CC2)c1
EC50 [1]: 22.3 µM (inactive) | EC50 (Mu-type opioid receptor): 92.5 µM (inactive)

CCN(CC)c1ccc2cc(C(=O)NCc3ccc(F)cc3)c(=N)oc2c1
IC50 (cells): 2.12 µM (active) | IC50 (Beta-lactamase [2]): > 59.6 µM (inactive) | IC50 (Beta-lactamase [3]): 28.1 µM (inactive)

N#C/C(=C\c1ccc(OC(=O)c2ccc(Cl)s2)cc1)c1nc2ccccc2[nH]1
EC50 (H4): 71.4 µM (active) | EC50 [4]: 13.1 µM (active) | IC50 [5]: 1.29 µM (active) | IC50 [6]: 1.77 µM (active) | IC50 [7]: 22.9 µM (inactive) | EC50 [8]: 19.1 µM (active) | IC50 [9]: 2.49 µM (active) | IC50 [10]: 16.9 µM (active)

O=C(Nc1ccccc1C(F)(F)F)C(O)(c1ccccc1)C1CCCCC1 (stereo not drawn)
AC50 (Vero): 36.8 µM (active)

Cc1cc2ccccc2n1CCNC(=O)C(C)C
EC50 [11]: > 195 µM (not active) | IC50 (Protein skinhead-1): 94.3 µM (inactive) | EC50 [12]: > 20 µM (inactive) | EC50 (Lethal factor): 19.5 µM (active)

COc1cccc(CNc2nc(NCC3CC3)nc3ccsc23)c1OC
AC50 [13]: 4.48 µM (active) | IC50 [14]: 33.3 µM (inactive) | IC50 [15]: 11.5 µM (active) | AC50 [16]: 34 µM (active) | IC50 [17]: 12.3 µM (active) | AC50 [18]: 23.6 µM (active)

Cc1ccc(OCc2ccc(C(=O)Nc3ccc(C(N)=O)cc3)o2)c([N+](=O)[O-])c1
IC50 [19]: 14 µM (inactive) | IC50 [20]: 16.7 µM (inactive)

CC[C@@]1(c2ccc(C)cc2)C(=O)N(C(=O)OC(C)C)N1C(=O)OC(C)C
IC50 [21]: 0.028 µM (active) | IC50 [22]: 0.017 µM (active)
